Several values for one entry are separate records, joined by “and”; a condition that tells them apart may be missing. Identical values can stand only once.
System: LG0703-F498-PDC complex spheroid growth
Test: Anticancer human tumor LG0703-F498-PDC patient-derived lung adenocarcinoma cell line growth inhibition [AhR]
Details: for viability, T/C: stronger effect = lower value
Text: Multicellular complex tumor spheroid response to aryl hydrocarbon receptor antagonists in combination with a variety of drugs and investigational agents in selected tumor cell lines
The current study was undertaken to assess response to aryl hydrocarbon receptor antagonists in combination with standard-of-care drugs and investigational agents in solid tumor complex spheroid models. Complex spheroids include a stromal component modeled by human endothelial cells (HUVEC) and fibroblasts modeled by human mesenchymal stem cells (MSCs). The concentration ranges selected for each drug and investigational agent were based upon clinically achievable concentrations if the clinical Cmax of the agent was known.
Compounds. The drugs and investigational agents: BAY 2416964 (NSC825713), GNF351 (NSC835774), CH-223191 (NSC835775), CPI-455 (NSC825282), aza-TdCyd (NSC777586), decitabine (NSC127716), belinostat (NSC758774), entinostat (NSC756642), pevonedistat (NSC761192), tazemetostat (NSC777109), talazoparib (NSC765396), olaparib (NSC753686), selinexor (NSC780203), nedisertib (M3814, NSC802822), bortezomib (NSC756655), venetoclax (NSC766270), doxorubicin (NSC123127), elimusertib (BAY189344, NSC800525), ceralasertib (AZD6738, NSC777638), TAK-243 (NSC785004), alisertib (NSC759677), etoposide (NSC141540), topotecan (NSC609699), eribulin (NSC707389), gemcitabine (NSC613327), carboplatin (NSC241240), cisplatin (NSC119875), and SN-38 (NSC673596) were obtained from the National Cancer Institute (NCI) Developmental Therapeutics Program Chemical Repository (32). The FDA-approved anticancer drug set is available from the Developmental Therapeutics Program at https://dtp.cancer.gov/organization/dscb/obtaining/available plates.htm. […] The stock solutions were prepared in dimethyl sulfoxide (DMSO, Sigma-Aldrich, St. Louis, MO, cat. D2650), except for the platinum compounds which were prepared in saline (Quality Biological, Gaithersburg, MD, cat. 114-055-101), at 800-fold the tested concentration and stored at -70 degrees C prior to their use. All drugs and investigational agents were tested over a range starting from a high concentration at or near the clinical Cmax and decreasing in half-log increments. If the clinical Cmax for an agent had not been determined, the highest concentration tested was 10 microM (Table 1).
Cell Culture. All cells were maintained in an incubator at 37 degrees C and 5% CO2 with 95% humidity. The PDC lines were cultured according to standard operating procedures established by the NCI PDMR (https://pdmr.cancer.gov). Briefly, all PDCs were thawed and cultured in Matrigel-coated flasks prepared with a working solution of 1X Ham's F-12 nutrient mix, without supplementation (Invitrogen, Waltham, MA, cat. 11765054), 100 U/mL penicillin-streptomycin (Invitrogen, cat. 15140122), and 2.5% Matrigel (Corning Inc., Corning, NY, cat. 354248) for the first three passages. All PDCs were cultured in complete DMEM/F-12 media containing advanced DMEM/F-12 (Invitrogen, cat. 12634028), 4.9% defined fetal bovine serum, heat inactivated (HyClone Laboratories Inc., Logan, UT, cat. SH30070.03HI), 389 ng/mL hydrocortisone (Sigma-Aldrich, cat. H4001), 9.7 ng/mL human EGF recombinant protein (Invitrogen, cat. PHG0313), 23.4 microg/mL adenine (Sigma-Aldrich, cat. A2786), 97.3 U/mL penicillin-streptomycin (Invitrogen, cat. 15140122), 1.9 mM L-glutamine (Invitrogen, cat. 25030081), and 9.7 microM Y-27632 dihydrochloride (Tocris Bioscience, Bristol, United Kingdom, cat. 1254). The PDCs were cultured in complete DMEM/F12 media without 10 microM Y-27632 dihydrochloride for at least two passages prior to the screen. The established cell lines NCI-H1341 and […] were cultured in DMEM/F-12, HEPES (Invitrogen, cat. 11330032), 5% defined fetal bovine serum (HyClone Laboratories Inc., cat. SH30070.03), ITS premix universal culture supplement [insulin (5 microg/mL), transferrin (5 microg/mL), and selenious acid (5 ng/mL)] […]

[1] = curve of first compound, second compound 0.1 µM
[2] = curve of first compound, second compound 0.316 µM
[3] = curve of first compound, second compound 1 µM
[4] = curve of first compound, second compound 3.16 µM
[5] = curve of first compound, second compound 10 µM
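Also: luminescence taken as a proxy for viable cell amount.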
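For viability, T/C in this document: percent of DMSO vehicle control where 100% means growth equal to vehicle.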

## CC(C)CC(NC(=O)C(Cc1ccccc1)NC(=O)c1cnccn1)B(O)O (configuration not stated) + Cc1ccccc1N=Nc1ccc(NC(=O)c2ccnn2C)c(C)c1
[1]
  IC50: 5.15 nM
[2]
  IC50: 5 nM
[3]
  IC50: 5.26 nM
[4]
  IC50: 5 nM
[5]
  IC50: 5.1 nM
Second compound 0.1 µM, first compound 0.000949 µM
  viability, T/C: 101%
Second compound 0.1 µM, first compound 0.003 µM
  viability, T/C: 85.3%
Second compound 0.1 µM, first compound 0.00949 µM
  viability, T/C: 10%
Second compound 0.1 µM, first compound 0.03 µM
  viability, T/C: 0.56%
Second compound 0.1 µM, first compound 0.0949 µM
  viability, T/C: 0.28%
Second compound 0.1 µM, first compound 0.3 µM
  viability, T/C: 0.18%
Second compound 0.316 µM, first compound 0.000949 µM
  viability, T/C: 95.2%
Second compound 0.316 µM, first compound 0.003 µM
  viability, T/C: 80%
Second compound 0.316 µM, first compound 0.00949 µM
  viability, T/C: 12.3%
Second compound 0.316 µM, first compound 0.03 µM
  viability, T/C: 0.81%
Second compound 0.316 µM, first compound 0.0949 µM
  viability, T/C: 0.11%
Second compound 0.316 µM, first compound 0.3 µM
  viability, T/C: 0.12%
Second compound 1 µM, first compound 0.000949 µM
  viability, T/C: 85.1%
Second compound 1 µM, first compound 0.003 µM
  viability, T/C: 85.8%
Second compound 1 µM, first compound 0.00949 µM
  viability, T/C: 12.8%
Second compound 1 µM, first compound 0.03 µM
  viability, T/C: 0.76%
Second compound 1 µM, first compound 0.0949 µM
  viability, T/C: 0.13%
Second compound 1 µM, first compound 0.3 µM
  viability, T/C: 0.17%
Second compound 3.16 µM, first compound 0.000949 µM
  viability, T/C: 86.9%
Second compound 3.16 µM, first compound 0.003 µM
  viability, T/C: 78%
Second compound 3.16 µM, first compound 0.00949 µM
  viability, T/C: 14.8%
Second compound 3.16 µM, first compound 0.03 µM
  viability, T/C: 1.06%
Second compound 3.16 µM, first compound 0.0949 µM
  viability, T/C: 0.16%
Second compound 3.16 µM, first compound 0.3 µM
  viability, T/C: 0.29%
Second compound 10 µM, first compound 0.000949 µM
  viability, T/C: 82%
Second compound 10 µM, first compound 0.003 µM
  viability, T/C: 81.3%
Second compound 10 µM, first compound 0.00949 µM
  viability, T/C: 13.5%
Second compound 10 µM, first compound 0.03 µM
  viability, T/C: 1.28%
Second compound 10 µM, first compound 0.0949 µM
  viability, T/C: 0.3%
Second compound 10 µM, first compound 0.3 µM
  viability, T/C: 0.39%

## O=C(c1cc(Cc2n[nH]c(=O)c3ccccc23)ccc1F)N1CCN(C(=O)C2CC2)CC1 + Cc1ccccc1N=Nc1ccc(NC(=O)c2ccnn2C)c(C)c1
[1]
  IC50: > 10000 nM
[2]
  IC50: > 10000 nM
[3]
  IC50: > 10000 nM
[4]
  IC50: > 10000 nM
[5]
  IC50: > 10000 nM
Second compound 0.1 µM, first compound 0.0316 µM
  viability, T/C: 89.3%
Second compound 0.1 µM, first compound 0.1 µM
  viability, T/C: 94.8%
Second compound 0.1 µM, first compound 0.316 µM
  viability, T/C: 89.8%
Second compound 0.1 µM, first compound 1 µM
  viability, T/C: 93.8%
Second compound 0.1 µM, first compound 3.16 µM
  viability, T/C: 85.7%
Second compound 0.1 µM, first compound 10 µM
  viability, T/C: 84.6%
Second compound 0.316 µM, first compound 0.0316 µM
  viability, T/C: 96.5%
Second compound 0.316 µM, first compound 0.1 µM
  viability, T/C: 119%
Second compound 0.316 µM, first compound 0.316 µM
  viability, T/C: 95.7%
Second compound 0.316 µM, first compound 1 µM
  viability, T/C: 102%
Second compound 0.316 µM, first compound 3.16 µM
  viability, T/C: 102%
Second compound 0.316 µM, first compound 10 µM
  viability, T/C: 79.9%
Second compound 1 µM, first compound 0.0316 µM
  viability, T/C: 86.7%
Second compound 1 µM, first compound 0.1 µM
  viability, T/C: 98%
Second compound 1 µM, first compound 0.316 µM
  viability, T/C: 88.7%
Second compound 1 µM, first compound 1 µM
  viability, T/C: 94.4%
Second compound 1 µM, first compound 3.16 µM
  viability, T/C: 90.2%
Second compound 1 µM, first compound 10 µM
  viability, T/C: 82.2%
Second compound 3.16 µM, first compound 0.0316 µM
  viability, T/C: 82.1%
Second compound 3.16 µM, first compound 0.1 µM
  viability, T/C: 97.1%
Second compound 3.16 µM, first compound 0.316 µM
  viability, T/C: 83.5%
Second compound 3.16 µM, first compound 1 µM
  viability, T/C: 86.9%
Second compound 3.16 µM, first compound 3.16 µM
  viability, T/C: 83.9%
Second compound 3.16 µM, first compound 10 µM
  viability, T/C: 73.9%
Second compound 10 µM, first compound 0.0316 µM
  viability, T/C: 85.6%
Second compound 10 µM, first compound 0.1 µM
  viability, T/C: 93%
Second compound 10 µM, first compound 0.316 µM
  viability, T/C: 94.5%
Second compound 10 µM, first compound 1 µM
  viability, T/C: 77.8%
Second compound 10 µM, first compound 3.16 µM
  viability, T/C: 72.3%
Second compound 10 µM, first compound 10 µM
  viability, T/C: 70.5%

## O=C(C=Cn1cnc(-c2cc(C(F)(F)F)cc(C(F)(F)F)c2)n1)NNc1cnccn1
Compound 0.00949 µM
  viability, T/C: 84.1% and 93.9% and 79.2%
Compound 0.03 µM
  viability, T/C: 83.7% and 79.7% and 62.9%
Compound 0.0949 µM
  viability, T/C: 55.5% and 52% and 41.8%
Compound 0.3 µM
  viability, T/C: 48.2% and 37.7% and 35.7%
Compound 0.949 µM
  viability, T/C: 40.9% and 39.8% and 39.1%
Compound 3 µM
  viability, T/C: 31.4% and 35.3% and 32.7%
Curve of compound
  IC50: 215 nM and 109 nM and 60.6 nM
